How the values were obtained:
[1] = biological target: Metallo-beta-lactamase type 2 (Bacteria, UniProt C7C422); assay: (§1) MBL Inhibitory Activity in Constructed E. coli Cells Expressing MBLs: a. Transfer 50 μl LB with 0.8 mM IPTG (0.4 mM final concentration in assay) to each wellb. Add 1 μl inhibitor/positive control (500/1000 μM final concentration in assay) to selected wellsc. Add 50 μl overnight culture (=1) to each welld. Incubate in plate reader at 37° C. for 20 min with shakinge. Add 5 μl nitrocefin (3.2 mM) to selected wells with a multichannel pipettef. Incubate the plate in the plate reader for 3 hours, measuring nitrocefin hydrolysis at A482 every minute, with shaking in-betweeng. Measure endpoint at A600 to see how inhibitor alone effects bacterial growthh. Centrifuge the plate at 2800 rpm for 10 min, and transfer 50 μl to clean wellsi. Measure A482 endpoint.
[2] = as §1

Chain of Metallo-beta-lactamase type 2 (C7C422 whole entry): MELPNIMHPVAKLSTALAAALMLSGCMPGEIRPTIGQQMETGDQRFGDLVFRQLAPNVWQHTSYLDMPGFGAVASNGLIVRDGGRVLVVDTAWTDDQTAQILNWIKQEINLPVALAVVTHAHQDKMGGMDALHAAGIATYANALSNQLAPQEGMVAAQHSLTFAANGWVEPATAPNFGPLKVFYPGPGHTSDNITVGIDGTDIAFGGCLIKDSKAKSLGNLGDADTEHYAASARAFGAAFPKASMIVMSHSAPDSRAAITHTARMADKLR

In the case of `COc1ccc(Cn2cc(CN(Cc3ccccn3)Cc3ccccn3)nn2)cc1`, the IC50 [1] is reported as 380 nM and the IC50 [2] is reported as 2260 nM.

— ChEMBL document CHEMBL5726725, “Inhibitors of metallo-beta-lactamase (MBL) comprising a zinc chelating moiety” (2019)
